US9297810B2, “CD40L-binding agent based platelet aggregation assays” (BIOGEN IDEC MA INC., priority 2005, dated 2016)
“And” between values parts separate entries of the source, which are not always exact repeats. Identical values can stand only once. “Also recorded” adds a separate entry of the source.

Columns and labels:
[1] = system: ADP-Activated Platelets / resting platelets (platelet rich plasma); assay: Platelet aggregation assay (PRP, Biodata PAP-4 aggregation profiler); format: cell-based, human; settings: for effect on aggregation of resting platelets: no ADP; for effect on the aggregation of ADP-activated platelets: wide range of ADP concentrations
Method: All platelets used in the in vitro platelet aggregation experiments were isolated from healthy human volunteers who denied ingesting aspirin or aspirin containing compounds within 10 days. Aggregation assays were performed on PRP. Approximately 50 mL of whole blood was collected in aliquots in 4.5 mL vacutainer tubes containing 0.5 mL of 3.8% sodium citrate. PRP was prepared by centrifuging the anticoagulated blood at 200 g for 10 minutes and harvesting the supernatant.
The Biodata 4-channel platelet aggregation profiler (PAP-4; Biodata Corp., Hatboro, Pa.) was blanked using a cuvette containing only platelet poor plasma (PPP). A 350 μL aliquot of PRP, containing approximately 2 to 5×10^8/mL platelets, was added to a cuvette containing a stir bar. Anti-CD40L antibody, human IgG, normal human serum, CD40-Fc, or anti-hFc were added in a total volume of 100 μL. The loaded cuvette was placed in the machine and the reaction components mixed prior to the addition of ADP.
Aggregation was initiated with the addition of sub-optimal concentration of ADP in 50 μL (final concentration varies for each individual sample). The aggregation profiler has four ports, which can run simultaneously. An aggregation tracing was generated for each sample for four minutes following the addition of ADP. At the end of the tracing, the instrument calculates the percentage of aggregation by comparing the transmission of light through the sample to the transmission of light through the PPP blank. A titration was performed at the beginning of each experiment, and subsequent runs were performed at a suboptimal ADP concentration.

[2] = target: T1, CD40L on the platelet surface (Homo sapiens, UniProt P29965); assay: Binding of biotin-conjugated anti-CD40L antibody to platelets (western blotting with HRP-streptavidin); settings: data not shown
T1 construct: Platelets were incubated with a biotin-conjugated anti-CD40L antibody to determine whether CD40L is present on the surface of platelets; endogenous in cells
T1 sequence (P29965 1-261): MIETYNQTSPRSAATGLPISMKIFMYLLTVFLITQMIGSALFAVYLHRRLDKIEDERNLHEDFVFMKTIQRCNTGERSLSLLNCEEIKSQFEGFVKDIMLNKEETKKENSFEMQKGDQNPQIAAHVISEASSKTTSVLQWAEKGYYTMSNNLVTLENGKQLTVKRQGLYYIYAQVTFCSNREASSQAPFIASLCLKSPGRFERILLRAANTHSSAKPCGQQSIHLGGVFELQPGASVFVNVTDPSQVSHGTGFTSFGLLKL

[3] = result in words, listed as Anti-CD40L antibody

BG9588: Research-grade anti-CD40L antibody prepared at Biogen; table column BG9588 corresponds to it
effect on aggregation of cross-linking of antibody bound to CD40L on activated platelets ([1]; 2 μg/mL, cross-linked with anti-hFc (Table 5)): may enhance aggregation under limited conditions
effect on platelet aggregation of anti-CD40L antibody cross-linked by sCD40L ([1]; FIG. 3, 233 μg/mL antibody and 30 μg/mL sCD40L, PRP of ten healthy donors, sub-optimal ADP): affected; also recorded: enhanced aggregation occurred with platelets isolated from some, but not all, healthy donors; also recorded: induced
effect on platelet aggregation together with sCD40L ([1]; FIG. 4, 200 μg/mL with sCD40L 30 μg/mL, 0.75 μM ADP, one donor): specifically enhanced
% of Aggregation ([1]; Table 1, 5 μg/mL, ADP 0.00 μM (resting platelets)): 11%
% of Aggregation ([1]; Table 1, 5 μg/mL, ADP 0.37 μM): 15%
% of Aggregation ([1]; Table 1, 5 μg/mL, ADP 0.70 μM): 24%
% of Aggregation ([1]; Table 1, 5 μg/mL, ADP 2.00 μM): 21%
% of Aggregation ([1]; Table 1, 5 μg/mL, ADP 6.70 μM): 71%
% of Aggregation ([1]; Table 1, 5 μg/mL, ADP 20.00 μM, PRP, four-minute tracing): 72%
% of Aggregation ([1]; Table 2, 5 μg/mL, ADP 0.37 μM): 10%
% of Aggregation ([1]; Table 2, 5 μg/mL, ADP 0.70 μM): 10%
% of Aggregation ([1]; Table 2, 5 μg/mL, ADP 2.00 μM): 12%
% of Aggregation ([1]; Table 2, 5 μg/mL, ADP 6.70 μM): 78%
% of Aggregation ([1]; Table 2, 5 μg/mL, ADP 20.00 μM): 80%
% of Aggregation ([1]; Table 3, 5 μg/mL, ADP 0.00 μM (resting platelets)): 3%
% of Aggregation ([1]; Table 3, 5 μg/mL, ADP 0.30 μM): 10%
% of Aggregation ([1]; Table 3, 5 μg/mL, ADP 0.60 μM): 10%
% of Aggregation ([1]; Table 3, 5 μg/mL, ADP 1.25 μM): 12%
% of Aggregation ([1]; Table 3, 5 μg/mL, ADP 2.50 μM): 62%
% of Aggregation ([1]; Table 3, 5 μg/mL, ADP 5.00 μM): 67%
% of Aggregation ([1]; Table 3, 5 μg/mL, ADP 10.00 μM): 69%
% of Aggregation ([1]; Table 3, 5 μg/mL, ADP 20.00 μM): 68%
% of Aggregation ([1]; Table 4, 1.25 μg/mL, ADP 0.00 μM): 3%
% of Aggregation ([1]; Table 4, 2.50 μg/mL, ADP 0.00 μM): 5%
% of Aggregation ([1]; Table 4, 5.00 μg/mL, ADP 0.00 μM): 3%
% of Aggregation ([1]; Table 4, 10.00 μg/mL, ADP 0.00 μM): 3%
% of Aggregation ([1]; Table 4, 20.00 μg/mL, ADP 0.00 μM): 3%
% of Aggregation ([1]; Table 5, BG9588 2 μg/mL + anti-hFc 2.22 μg/mL, ADP 0.0 μM): 3%
% of Aggregation ([1]; Table 5, BG9588 2 μg/mL + anti-hFc 2.22 μg/mL, ADP 0.5 μM): 8%
% of Aggregation ([1]; Table 5, BG9588 2 μg/mL + anti-hFc 2.22 μg/mL, ADP 1.0 μM): 76%
% of Aggregation ([1]; Table 5, BG9588 2 μg/mL + anti-hFc 6.66 μg/mL, ADP 0.0 μM): 3%
% of Aggregation ([1]; Table 5, BG9588 2 μg/mL + anti-hFc 6.66 μg/mL, ADP 0.5 μM): 8%
% of Aggregation ([1]; Table 5, BG9588 2 μg/mL + anti-hFc 6.66 μg/mL, ADP 1.0 μM): 84%
% of Aggregation ([1]; Table 5, BG9588 2 μg/mL + anti-hFc 20.00 μg/mL, ADP 0.0 μM): 3% and 4%
% of Aggregation ([1]; Table 5, BG9588 2 μg/mL + anti-hFc 20.00 μg/mL, ADP 0.5 μM): 8%
% of Aggregation ([1]; Table 5, BG9588 2 μg/mL + anti-hFc 20.00 μg/mL, ADP 1.0 μM): 83%
% of Aggregation ([1]; Table 5, BG9588 2 μg/mL alone, ADP 0.0 μM): 3%
% of Aggregation ([1]; Table 6, resting platelets, BG9588 2 μg/mL + serum 0.00032x): 6%
% of Aggregation ([1]; Table 6, resting platelets, BG9588 2 μg/mL + serum 0.0016x): 6%
% of Aggregation ([1]; Table 6, resting platelets, BG9588 2 μg/mL + serum 0.008x): 7%
% of Aggregation ([1]; Table 6, resting platelets, BG9588 2 μg/mL + serum 0.04x): 6%
% of Aggregation ([1]; Table 6, resting platelets, BG9588 2 μg/mL + serum 0.2x): 6%
% of Aggregation ([1]; Table 6, resting platelets, BG9588 2 μg/mL + serum 1.0x): 9%
effect on platelet aggregation of cross-linked anti-CD40L antibody ([1]; cross-linked with 2.22 μg/mL anti-hFc, ADP 1.0 μM (Table 5 lines 109 and 110)): increased aggregation
effect on platelet aggregation of cross-linked anti-CD40L antibody ([1]; cross-linked with 20 μg/mL or 6.66 μg/mL anti-hFc): did not affect
enhancing effect on platelet aggregation of cross-linked anti-CD40L antibody ([1]; cross-linked with anti-hFc, lower concentration of ADP): not observed
effect on aggregation of resting platelets [1, 3]: do not induce
effect on aggregation of resting platelets ([1]; result in words, listed as anti-CD40L antibody): not affected
effect on platelet aggregation ([1]; result in words): does not affect
effect on the aggregation of ADP-activated platelets [1, 3]: do not induce the aggregation of resting platelets or affect; also recorded: do not affect
effect on the aggregation of ADP-activated platelets ([1]; result in words, listed as Research-grade anti-CD40L antibody): did not affect
effect on platelets in the presence of normal human serum ([1]; with normal human serum (Table 6)): not affected

B1: sCD40L: recombinant soluble CD40 ligand prepared at Biogen, cross-linking agent (protein, UniProt P29965 47-261, looked up)
extracellular domain: HRRLDKIEDERNLHEDFVFMKTIQRCNTGERSLSLLNCEEIKSQFEGFVKDIMLNKEETKKENSFEMQKGDQNPQIAAHVISEASSKTTSVLQWAEKGYYTMSNNLVTLENGKQLTVKRQGLYYIYAQVTFCSNREASSQAPFIASLCLKSPGRFERILLRAANTHSSAKPCGQQSIHLGGVFELQPGASVFVNVTDPSQVSHGTGFTSFGLLKL
modifications: extracellular domain
notes: recombinant soluble CD40 ligand prepared at Biogen, cross-linking agent
effect of preincubation on binding of biotin-conjugated anti-CD40L antibody to activated platelets [2]: inhibited binding
